Laboratory results as given in patent US12714576B2, “System and method for treatment of bone” (SHANKAR RAJESWARAN M.D. LLC, priority 2020, dated 2026).
Where “and” joins values, the source holds several entries; their conditions need not be identical. Equal entries are not always repeated.

Tested on: unicameral bone cyst (UBC)
Assay: Retrospective evaluation of pediatric patients with UBC treated by doxycycline chemical curettage (sclerotherapy) and injection of synthetic bone graft
Format: in vivo
Experimental: Summary. Retrospective evaluation of twelve pediatric patients, ages 5-14 years, undergoing treatment for a UBC, at a single institution. All UBCs were treated in a single, minimally invasive, image guided procedure using percutaneous needle access into the UBC followed by chemical curettage (a form of sclerotherapy) and injection of regenerative synthetic graft. Patients were followed clinically, and with serial radiographs, to evaluate for healing and complications. Mean time to return to full activity was 2.2 months post procedure, with a mean clinical follow-up time of 9.2 months.
Methods. Fifteen patients were initially enrolled in this IRB approved study from August 2018 through May 2020. The diagnosis of UBC was made via radiographs and/or magnetic resonance imaging (MRI).
Combination sclerotherapy and graft injection with CaSO4—CaPO4 was performed in a single setting as an outpatient procedure with an average procedure time of 45 minutes (range 30-60 minutes). Mean volume of doxycycline instilled during cyst sclerotherapy was 52 mL (20 mg/ml and a range 20-100 mL). Mean volume of CaSO4—CaPO4 synthetic graft material administered was 28 mL (range 4-90 mL).
Patients were followed clinically for a minimum of three months post procedure, with radiographs performed at follow-up visits. One patient was excluded as they had imaging consistent with a fractured UBC that had subsequently rehealed into multiple cysts, and 2 other patients were excluded secondary to follow up of less than 3 months.
Assessment of treatment response was evaluated using the Modified Neer Classification of Radiographic Healing, as shown above in Table 1. All radiographs were evaluated by four attending pediatric radiologists.
Procedure Technique. All procedures were performed under general anesthesia. For each procedure, the cyst was localized under fluoroscopy, and the upper and lower margins of the cyst were marked on the skin. Ultrasound mapping of the area of concern was performed to identify critical structures such as arteries or nerves. However, the cyst itself could often be visualized sonographically due to associated cortical thinning.
A 5 mm incision was made at each cyst margin as marked on the skin, and an 11-gauge or 14-gauge “treatment” needle was advanced into the cyst percutaneously. Choice of needle gauge was determined by cyst size and the expected amount of synthetic graft to be administered, with 11-gauge needles used in larger cysts. A second 5 mm incision was made along the remaining marked margin of the lesion, and a 14-gauge or 16-gauge “venting” needle was placed.
Next, Omnipaque-180 (GE Healthcare), a water-soluble iodinated contrast, was diluted with sterile saline in a 1:1 ratio and was injected via the treatment needle during fluoroscopic visualization, taking care to ensure fluid egress via the venting needle. Contrast injection was performed to confirm a cystic nature of the UBC, to ensure adequate diffusion of the injected contrast throughout the cystic cavity, as well as to assess the presence of unexpected significant vascular outflow. Occasionally, an incomplete septation within the cyst was encountered, likely secondary healing change related to a prior pathologic fracture or prior treatment.
Doxycycline (20 mg/mL), in a volume to match the cyst volume, was injected through the treatment needle and aspirated through the venting needle in a push-pull fashion, irrigating the cyst for one minute. The doxycycline was allowed to dwell for another nine minutes. A second round of sclerosant irrigation was then performed using similar technique and fresh doxycycline solution; thus, the total duration of doxycycline sclerotherapy was 20 minutes.
Utilizing the cyst volume determined during initial contrast injection, a similar volume of synthetic bone graft material was prepared and injected through the treatment needle during live fluoroscopy. […]

SMILES: C[C@H]1c2cccc(O)c2C(=O)C2=C(O)[C@]3(O)C(=O)C(C(N)=O)=C(O)[C@@H](N(C)C)[C@@H]3[C@@H](O)[C@@H]21 [doxycycline]
- Patients with healing of the UBC (Modified Neer class 1) (10 of 12 patients, most recent follow-up radiographs): 83%
- Patients showing healed cysts (Modified Neer classes 1 or 2) (11 of 12 patients, most recent follow-up): 91.7%
- Adverse events related to the procedures (12 patients): no adverse events related to the procedures
- Perioperative complications (12 patients): No perioperative complications were observed
- Return to Activities (mo) (one line per patient (patients 1-12), doxycycline 20 mg/mL sclerotherapy followed by CaSO4-CaPO4 synthetic graft (PRO-DENSE)): 1.0 mo and 0.8 mo and 1.9 mo and 2.1 mo and 1.3 mo and 1.6 mo (2×) and 1.2 mo and 3.1 mo and 4.8 mo and 2.8 mo and 3.7 mo
- Patients with healing with a small defect (Modified Neer class 2) (one of 12 patients, most recent follow-up radiographs): 8%
